Results on 27 molecules are retold here after US20090234019A1, “T Type Calcium Channel Inhibitors” (priority 2004, published 2009).

Read-outs that look alike come from different tables or passages of the source.

Assay [1] relates to Jurkat cells. Description: Inhibition of proliferation of Jurkat cells. It is filed as cell-based, human. The procedure:
(§1) Cancer cell lines were obtained from the American Type Culture Collection (Manassas, Va.). Cell lines were maintained in RPMI1640 supplemented with glutamine and 5% fetal bovine serum containing SerXtend (Irvine Scientific) when appropriate insulin, as directed by the ATCC. The fetal bovine serum used for culture was heat-inactivated by maintaining the serum at 56° C. for 1 h. Cell lines used were a T celleukemia (Jurkat), prostate cancer (PC3, DU145, LNCAP), breast cancer (MDA468, MDA361, MCF7), pancreatic cancer (MIA PaCa2), liver cancer (Hep G2), lung cancer (A549, NCl H460), colon cancer (HT29, HCT 116), and ovarian cancer (SK-OV-3).
(§2) LNCaP cells at 2.5×10^4 cells/well or PC-3 cells at 5×10^4 cells/well, both in a final volume of […], were plated in triplicate in standard flat-bottomed 96-well tissue culture plates in the presence of drug or vehicle (DMSO). Unless otherwise indicated, cells were grown for 48 h at 37° C. in a CO2 incubator. Relative cell growth was determined with the CellTiter 96 aqueous cell proliferation assay (Promega, Madison, Wis.) as described by the manufacturer using an automated plate reader. Results were calculated in a blinded fashion and are the means of triplicate determinations.

The test system of assay [2] is Jurkat cells. Description: Inhibition of calcium entry into Jurkat cells (indo-1 fluorescence). It is filed as cell-based, human. As to the method: Cells were incubated in growth media containing 1 uM of the acetoxy-methyl ester of the Ca2+-sensitive fluorescent dye indo-1 (indo-1/AM; Molecular Probes, Eugene, Oreg.) for 1 h at 37° C. Cells were washed three times in buffer A [10 mM HEPES (pH 7.4), 1 mM MgCl2, 3 mM KCl, 1 mM CaCl2, 140 mM NaCl, 0.1% glucose, and 1% fetal bovine serum] and suspended to a final concentration of 10^6 cells/ml. Before stimulation, cells were warmed to 37° C. Changes in [Ca2+]i were monitored in an SLM […] spectrofluorimeter (SLM/Aminco; Urbana, Ill.) using previously published methods ([…]., Szabo, G., and Gray, L. S. 1996. A voltage operable current is involved in activation-induced Ca^2+ entry in human lymphocytes whereas ICRAC has no apparent role. Am. J. Physiol. 271:[…]., and Gray, L. S. 1998. Calmodulin regulation of Ca^2+ entry in Jurkat T cells. Cell Calcium 23:361-368).

Assay [3] deals with MDA-231 cells. Description: Inhibition of proliferation of MDA-231 cells. It counts as cell-based. The note with it: Homo sapiens, read-out: prolif: IC50 for inhibition of proliferation, MDA-231.
The subject of assay [4] is LNCaP cells. Description: Inhibition of proliferation of LNCaP cells. It is filed as cell-based. The conditions noted are these: Homo sapiens, read-out: prolif: IC50 for inhibition of proliferation, LNCaP. As to the method:
as §1, §2

Assay [5] has as its system MDA-231 cells. Description: Inhibition of calcium entry into MDA-231 cells. It is filed as cell-based. The conditions noted are these: Homo sapiens, MDA-MB-231, NE = no effect at highest concentration of drug tested, read-out: Ca2+: IC50 for inhibition of calcium entry, MDA-231. The procedure:
(§3) Cells were incubated in growth media containing 1 uM of the acetoxy-methyl ester of the Ca2+-sensitive fluorescent dye indo-1 (indo-1/AM; Molecular Probes, Eugene, Oreg.) for 1 h at 37° C. Cells were washed three times in buffer A [10 mM HEPES (pH 7.4), 1 mM MgCl2, 3 mM KCl, 1 mM CaCl2, 140 mM NaCl, 0.1% glucose, and 1% fetal bovine serum] and suspended to a final concentration of 10^6 cells/ml. Before stimulation, cells were warmed to 37° C. Changes in [Ca2+]i were monitored in an SLM 8100C spectrofluorimeter (SLM/Aminco; Urbana, Ill.) using previously published methods (Densmore, J. J., Haverstick, D. M., Szabo, G., and Gray, L. S. 1996. A voltage operable current is involved in activation-induced Ca^2+ entry in human lymphocytes whereas ICRAC has no apparent role. Am. J. Physiol. 271:C1494-C1503; Haverstick, D. M., Densmore, J. J., and Gray, L. S. 1998. Calmodulin regulation of Ca^2+ entry in Jurkat T cells. Cell Calcium 23:361-368).

Assay [6] deals with PC3 cells. Description: Inhibition of proliferation of PC3 cells. It is filed as cell-based, human. The conditions noted are these: Homo sapiens, PC-3, PC3, read-out: prolif: IC50 for inhibition of proliferation, PC3. As to the method:
as §1, §2

Assay [7] deals with MDA-435 cells. Description: Inhibition of proliferation of MDA-435 cells. It is filed as cell-based. The conditions noted are these: read-out: prolif: IC50 for inhibition of proliferation, MDA-435.
Assay [8] relates to MDA-361 cells. Description: Inhibition of proliferation of MDA-361 cells. It counts as cell-based. The note with it: MDA361, NE = no effect at highest concentration of drug tested, read-out: prolif: IC50 for inhibition of proliferation, MDA-361. The procedure: as §1, §2
For assay [9], the system named is LNCaP cells. Description: Inhibition of calcium entry into LNCaP cells. It counts as cell-based. The conditions noted are these: Homo sapiens, NE = no effect at highest concentration of drug tested, read-out: Ca2+: IC50 for inhibition of calcium entry, LNCaP. As to the method: as §3
The mark [10] stands for this setting: Homo sapiens, Jurkat cell line, Tables 1 and 2, unit inferred, read-out: IC50 for inhibition of proliferation.
The mark [11] stands for this setting: Homo sapiens, Jurkat cell line, Tables 1 and 2, unit inferred, read-out: IC50 for inhibition of Ca^2+ entry.
The mark [12] stands for this setting: MDA-MB-231, NE = no effect at highest concentration of drug tested.
The mark [13] stands for this setting: NE = no effect at highest concentration of drug tested.
[14] abbreviates: Homo sapiens, Jurkat, NE = no effect at highest concentration of drug tested, read-out: prolif: IC50 for inhibition of proliferation, Jurkat.
Where [15] appears, read: MDA435, NE = no effect at highest concentration of drug tested.
[16] abbreviates: Homo sapiens, Jurkat, NE = no effect at highest concentration of drug tested, read-out: Ca2+: IC50 for inhibition of calcium entry, Jurkat.
The mark [17] stands for this setting: Jurkat cell line, Tables 1 and 2, unit inferred, read-out: IC50 for inhibition of proliferation.
The mark [18] stands for this setting: Jurkat cell line, Tables 1 and 2, unit inferred, read-out: IC50 for inhibition of Ca^2+ entry.

Regarding `CC(C)COCC(CN(Cc1ccccc1)c1ccccc1)N1CCCC1` (stereo not shown) [Bepridil], the IC50 is 10 µM in assay [1] (setting [10]) and 5 µM in assay [2] (setting [11]).

Take `CC(NC(C)(C)C)C(=O)c1cccc(Cl)c1` (stereo not shown) [Bupropion]: the IC50 in assay [1] (setting [10]) and in assay [2] (setting [11]) was more than 100 µM throughout.

Take `CN1CCN(C(c2ccccc2)c2ccc(Cl)cc2)CC1` (stereo not shown) [Chlorcyclizine]: the IC50 in assay [1] (setting [10]) was 90 µM; in assay [2] (setting [11]), 25 µM.

For `COc1ccc(CCCNCCCC(c2ccccc2)c2ccc(Cl)cc2)cc1` (stereo not shown) [Compound 3.3], the IC50 in assay [3] (setting [12]) was more than 0.1 mM; in assay [4] (setting [13]) it was 0.042 mM; in assay [5], 100 µM; in assay [1] (setting [14]), 70 µM; in assay [6] (setting [13]), more than 0.1 mM; in [7] (setting [15]), more than 0.1 mM. The IC50 in assay [2] (setting [16]) was 60 µM.

With `COc1ccc(COCCOC(c2ccccc2)c2ccc(Cl)cc2)cc1` (stereo not shown) [Compound 3.7], the IC50 in assay [3] (setting [12]) was more than 0.1 mM; in [4] (setting [13]), approximately 0.1 mM; in assay [5] it was 60 µM; in assay [1] (setting [14]) it was approximately 100 µM; in [6] (setting [13]), more than 0.1 mM; in assay [8], more than 100 µM. The IC50 in [7] (setting [15]) was more than 0.1 mM; in [2] (setting [16]), 10 µM.

As to `COc1ccc(CCNc2ccccc2COC(c2ccccc2)c2ccc(Cl)cc2)cc1` (stereo not shown) [Compound 3.10], the IC50 was more than 1 mM in assay [3] (MDA-MB-231, mM); more than 1 mM in assay [4] (mM); more than 300 µM in assay [1] (setting [14]); more than 1 mM in [6] (mM); approximately 70 µM in assay [8]; more than 1 mM in assay [7] (MDA435, mM).

Turning to `COc1ccc(CC[N+](C)(C)CCOC(c2ccccc2)c2ccc(Cl)cc2)cc1` (stereo not shown) [Compound 3.16], the IC50 in assay [9] was found to be 10 µM; in assay [3] (setting [12]) it was 0.021 mM; in assay [4] (setting [13]) it was 0.033 mM; in [1] (setting [14]), 23 µM; in [6] (setting [13]) it was 0.055 mM; in assay [8], 8 µM. In addition, the IC50 in assay [7] (setting [15]) came out at 0.05 mM; in [2] (setting [16]) it was 30 µM.

In the case of `COc1ccc(CCCCCNCC(c2ccccc2)c2ccc(Cl)cc2)cc1` (stereo not shown) [Compound 3.22], the IC50 came to 0.025 mM in [3] (setting [12]); 0.009 mM in assay [4] (setting [13]); 10 µM in assay [5]; 13 µM in assay [1] (setting [14]); 0.009 mM in assay [6] (setting [13]); 0.04 mM in [7] (setting [15]). The IC50 in [2] (setting [16]) came to 3 µM.

Take `COc1ccc(CCCCCCNC(c2ccccc2)c2ccc(Cl)cc2)cc1` (stereo not shown) [Compound 3.23]: the IC50 in assay [3] (setting [12]) is more than 0.1 mM; in assay [4] (setting [13]), approximately 0.1 mM; in [1] (setting [14]), approximately 30 µM; in [6] (setting [13]) it was more than 0.1 mM; in assay [7] (setting [15]), more than 0.1 mM.

With `CCN(CC)C(C)CN1c2ccccc2Sc2ccccc21` (stereo not shown) [Ethopropazine], the IC50 is 30 µM in assay [1] (setting [10]) and 10 µM in assay [2] (setting [11]).

Consider `CC(NCCC(c1ccccc1)c1ccccc1)c1ccccc1` (stereo not shown) [Fendiline], for which the IC50 amounted to 30 µM in assay [1] (setting [10]) and 10 µM in assay [2] (setting [11]).

For the molecule `COC(=O)C1=C(C)NC(C)=C(C(=O)OC(C)C)C1c1cccc2nonc12` (stereo not shown) [Isradipine], the IC50 in [1] (setting [10]) is 100 µM; in assay [2] (setting [11]), 10 µM.

`Cc1cccc(C)c1NC(=O)CN1CCN(CCCC(c2ccc(F)cc2)c2ccc(F)cc2)CC1` [Lidoflazine]: the values for the IC50 in assay [1] (setting [10]) and in assay [2] (setting [11]) were 10 µM and 5 µM, respectively.

As for `Cc1cccc(CN2CCN(C(c3ccccc3)c3ccc(Cl)cc3)CC2)c1` (stereo not shown) [Meclizine], the IC50 in assay [1] (setting [10]) and in [2] (setting [11]) was 30 µM throughout.

As to `COc1ccc2c(c1)N(C[C@H](C)CN(C)C)c1ccccc1S2` [Methotrimeprazine], the IC50 in assay [1] (setting [10]) amounted to 30 µM; in assay [2] (setting [11]), 10 µM.

Regarding `CC(Cc1ccc(O)c(O)c1)C(C)Cc1ccc(O)c(O)c1` (stereo not shown) [NDGA, Nordihydroguaiaretic acid], the IC50 in assay [1] (setting [17]) was found to be 30 µM; in assay [2] (setting [18]) it was 10 µM.

On to `COC(=O)C1=C(C)NC(C)=C(C(=O)OCCN(C)Cc2ccccc2)C1c1cccc([N+](=O)[O-])c1` (stereo not shown) [Nicardipine], for which the results for the IC50 in assay [1] (setting [10]) and in assay [2] (setting [11]) were 30 µM and 10 µM, respectively.

Take `O=C(O)c1cccnc1Nc1cccc(C(F)(F)F)c1` [Niflumic acid]: the IC50 in assay [1] (setting [10]) turned out to be 100 µM; in assay [2] (setting [11]), 50 µM.

Consider `COCCOC(=O)C1=C(C)NC(C)=C(C(=O)OC(C)C)C1c1cccc([N+](=O)[O-])c1` (stereo not shown) [Nimpodipine], for which the IC50 in assay [1] (setting [17]) and in [2] (setting [18]) was more than 100 µM in each case.

In the case of `C1CCC(C(CC2CCCCN2)C2CCCCC2)CC1` (stereo not shown) [Perhexiline], the IC50 in assay [1] (setting [10]) turned out to be 10 µM; in assay [2] (setting [11]), 5 µM.

Consider `O=c1[nH]c2ccccc2n1C1CCN(CCCC(c2ccc(F)cc2)c2ccc(F)cc2)CC1` [Pimozide], for which the IC50 in [1] (setting [10]) and in assay [2] (setting [11]) was more than 100 µM throughout.

Consider `CN(C)CCCN1c2ccccc2Sc2ccccc21` [Promazine], for which the figures for the IC50 in assay [1] (setting [10]) and in assay [2] (setting [11]) were 30 µM and 10 µM, respectively.

In the case of `CC(CN1c2ccccc2Sc2ccccc21)N(C)C` (stereo not shown) [Promethazine], the IC50 in [1] (setting [10]) was found to be 4 µM; in assay [2] (setting [11]), 60 µM.

As for `CCC(=O)c1ccc2c(c1)N(CC(C)N(C)C)c1ccccc1S2` (stereo not shown) [Propiomazine], the IC50 in assay [1] (setting [10]) and in assay [2] (setting [11]) was 30 µM in each case.

Take `COc1ccc2cc1Oc1ccc(cc1)C[C@H]1c3cc(c(OC)cc3CCN1C)Oc1c(OC)c(OC)cc3c1[C@H](C2)N(C)CC3` [Tetrandrine]: the IC50 in [1] (setting [10]) turned out to be 3 µM; in assay [2] (setting [11]) it was 10 µM.

As for `C[C@H](CCC(=O)O)C[C@H](C)C[C@H](C)C(=O)/C=C(\O)[C@H](C)C[C@H](C)C/C=C/[C@@H](C)[C@@H](O)[C@@H](C)[C@@H](O)C[C@@H]1CC[C@@](C)([C@H]2CC[C@@](C)([C@@H](C)O)O2)O1` [ionomycin], the “effect on proliferation of ionomycin alone” value in [1] (30 nM ionomycin alone, Jurkat) was “no effect”.

On to Prenylamine lactate, for which the IC50 in assay [1] (setting [17]) and in assay [2] (setting [18]) was 10 µM throughout.
